The text below walks through data of US20230131966A1, “FUNGICIDAL AMIDES” (FMC Corporation, priority 2020, published 2023).

Common to all, as to assay type: in vivo
One assay concerns Phakopsora pachyrhizi. Kind of assay: Test A: Asian soybean rust control on soybean seedlings. To be noted: 250 ppm; soybean seedlings; 100 = 100% disease control, 0 = no control.
The subject of another assay is Phytophthora infestans. Description: whole plant or invertebrate. To be noted: 250 ppm; tomato seedlings; 100 = 100% disease control, 0 = no control.
A further assay has as its system Plasmopara viticola. Description: Test D: grape downy mildew control on grape seedlings. To be noted: 250 ppm, 100 = 100% disease control, 0 = no control.
Assay [1] has as its system Puccinia recondita f. sp. tritici. Description: Test B: wheat leaf rust control on wheat seedlings. To be noted: 250 ppm; wheat seedlings; 100 = 100% disease control, 0 = no control.
The subject of the next assay is Zymoseptoria tritici. Kind of assay: Test C: wheat leaf blotch control on wheat seedlings. To be noted: 250 ppm; wheat seedlings; 100 = 100% disease control, 0 = no control.
The test system of assay [2] is Erysiphe graminis f. sp. tritici. Description: Test G: wheat powdery mildew control on wheat seedlings. To be noted: 250 ppm, 100 = 100% disease control, 0 = no control.
The next assay deals with Botrytis cinerea. Kind of assay: Test E: tomato Botrytis control on tomato seedlings. To be noted: 250 ppm, 100 = 100% disease control, 0 = no control.

On to `COc1ccnc(C(=O)N[C@@H](C)C(=O)OC(C)c2ccc(C(C)C)cc2)c1O` (some centres unmarked) [Compound 118], for which, in the assay with Phakopsora pachyrhizi, the “Test A disease control rating” value is on record as 100%. Also, the “Test F disease control rating” value in the assay on Phytophthora infestans is reported as 0%. In the assay on Plasmopara viticola, the “Test D disease control rating” value was determined as 85%. Besides, the “Test B disease control rating” value in assay [1] worked out at 99%. For the same molecule, in the assay on Zymoseptoria tritici, the “Test C disease control rating” value was found to be 86%. The “Test G disease control rating” value in assay [2] came out at 0%. In the assay on Botrytis cinerea, the “Test E disease control rating” value is 0%.

As for `COc1ccnc(C(=O)NC(C)C(=O)OC(C)c2ccc(F)cc2)c1OC(C)=O` (mixture of isomers) [Compound 15], the “Test A disease control rating” value in the assay on Phakopsora pachyrhizi was 75%. Besides, the “Test F disease control rating” value with Phytophthora infestans was 0%. For the same molecule, the “Test D disease control rating” value in the assay with Plasmopara viticola is 39%. The “Test B disease control rating” value in assay [1] was found to be 19%. For the same molecule, the “Test C disease control rating” value in the assay on Zymoseptoria tritici amounted to 69%. Further, the “Test G disease control rating” value in assay [2] came to 0%. Also, in the assay on Botrytis cinerea, the “Test E disease control rating” value is 0%.

Consider `C=CCOc1c(OC)ccnc1C(=O)NC(C)C(=O)OC(C)c1ccc(C2CCCCC2)cc1` (mixture of isomers) [Compound 153], for which the “Test A disease control rating” value in the assay with Phakopsora pachyrhizi stood at 100%. In addition, the “Test F disease control rating” value in the assay with Phytophthora infestans is 26%. For the same molecule, the “Test D disease control rating” value with Plasmopara viticola is reported as 70%. Further, the “Test B disease control rating” value in assay [1] amounted to 95%. Moreover, the “Test C disease control rating” value with Zymoseptoria tritici was 24%. Further, in assay [2], the “Test G disease control rating” value is 0%. Further, the “Test E disease control rating” value with Botrytis cinerea was determined as 0%.

Turning to `COc1ccnc(C(=O)NC(C)C(=O)OC(C)C2CCCc3ccccc32)c1OC(C)=O` (mixture of isomers) [Compound 185], the “Test A disease control rating” value in the assay with Phakopsora pachyrhizi is given as 100%. Moreover, the “Test F disease control rating” value in the assay with Phytophthora infestans is given as 0%. Moreover, in the assay with Plasmopara viticola, the “Test D disease control rating” value is recorded as 61%. Further, the “Test B disease control rating” value in assay [1] came out at 100%. Moreover, the “Test C disease control rating” value in the assay on Zymoseptoria tritici stood at 100%. Also, in assay [2], the “Test G disease control rating” value amounted to 0%. The “Test E disease control rating” value with Botrytis cinerea was found to be 0%.

As for `COc1ccnc(C(=O)NC(C)C(=O)OC(C)C2CCC(C)(C)CC2)c1OC(C)=O` (mixture of isomers) [Compound 165], in the assay with Phakopsora pachyrhizi, the “Test A disease control rating” value was determined as 100%. For the same molecule, in the assay on Phytophthora infestans, the “Test F disease control rating” value came to 0%. In addition, the “Test D disease control rating” value in the assay with Plasmopara viticola stood at 10%. In addition, the “Test B disease control rating” value in assay [1] was determined as 100%. The “Test C disease control rating” value with Zymoseptoria tritici turned out to be 97%. The “Test G disease control rating” value in assay [2] was 0%. In addition, the “Test E disease control rating” value in the assay on Botrytis cinerea worked out at 0%.

For `COc1ccnc(C(=O)N[C@@H](C)C(=O)OC(C)C2CCCc3ccccc32)c1O` (single isomer, unassigned) [Compound 183], the “Test A disease control rating” value with Phakopsora pachyrhizi was 100%. Besides, in the assay on Phytophthora infestans, the “Test F disease control rating” value was 0%. Moreover, in the assay with Plasmopara viticola, the “Test D disease control rating” value amounted to 44%. For the same molecule, the “Test B disease control rating” value in assay [1] amounted to 99%. The “Test C disease control rating” value in the assay with Zymoseptoria tritici turned out to be 98%. Further, the “Test G disease control rating” value in assay [2] is recorded as 0%. Also, in the assay on Botrytis cinerea, the “Test E disease control rating” value was 0%.

For `COc1ccnc(C(=O)N[C@@H](C)C(=O)OC(C)c2ccccc2-c2ccccc2)c1O` (single isomer, unassigned) [Compound 1], in the assay with Phakopsora pachyrhizi, the “Test A disease control rating” value is listed as 100%. The “Test F disease control rating” value with Phytophthora infestans was 0%. Moreover, the “Test D disease control rating” value in the assay on Plasmopara viticola worked out at 36%. For the same molecule, the “Test B disease control rating” value in assay [1] was 89%. In addition, the “Test C disease control rating” value in the assay with Zymoseptoria tritici is 81%. Also, in assay [2], the “Test G disease control rating” value turned out to be 0%. Further, the “Test E disease control rating” value in the assay on Botrytis cinerea stood at 0%.

For the molecule `COc1ccnc(C(=O)NC(C)C(=O)OC(C)c2ccc(Br)s2)c1OC(C)=O` (mixture of isomers) [Compound 67], in the assay with Phakopsora pachyrhizi, the “Test A disease control rating” value is listed as 13%. Also, the “Test F disease control rating” value in the assay with Phytophthora infestans stood at 0%. Moreover, the “Test D disease control rating” value in the assay on Plasmopara viticola came out at 53%. For the same molecule, in assay [1], the “Test B disease control rating” value was determined as 55%. In addition, the “Test C disease control rating” value with Zymoseptoria tritici is 36%. Besides, the “Test G disease control rating” value in assay [2] turned out to be 0%. Moreover, the “Test E disease control rating” value in the assay on Botrytis cinerea came to 0%.
